Results reported in paper PMC3493679 (Hepatology (Baltimore, Md.), 2012).
Where two headings read alike, the source gives them in different places. One block for each compound: values may come before it.

Tests used:
human Nox4 = biological target: T1, human Nox4 (Homo sapiens, UniProt Q9NPH5); format: biochemical; conditions: read-out: Ki on Nox4; cell free membrane assay
T1 sequence (Q9NPH5 1-578): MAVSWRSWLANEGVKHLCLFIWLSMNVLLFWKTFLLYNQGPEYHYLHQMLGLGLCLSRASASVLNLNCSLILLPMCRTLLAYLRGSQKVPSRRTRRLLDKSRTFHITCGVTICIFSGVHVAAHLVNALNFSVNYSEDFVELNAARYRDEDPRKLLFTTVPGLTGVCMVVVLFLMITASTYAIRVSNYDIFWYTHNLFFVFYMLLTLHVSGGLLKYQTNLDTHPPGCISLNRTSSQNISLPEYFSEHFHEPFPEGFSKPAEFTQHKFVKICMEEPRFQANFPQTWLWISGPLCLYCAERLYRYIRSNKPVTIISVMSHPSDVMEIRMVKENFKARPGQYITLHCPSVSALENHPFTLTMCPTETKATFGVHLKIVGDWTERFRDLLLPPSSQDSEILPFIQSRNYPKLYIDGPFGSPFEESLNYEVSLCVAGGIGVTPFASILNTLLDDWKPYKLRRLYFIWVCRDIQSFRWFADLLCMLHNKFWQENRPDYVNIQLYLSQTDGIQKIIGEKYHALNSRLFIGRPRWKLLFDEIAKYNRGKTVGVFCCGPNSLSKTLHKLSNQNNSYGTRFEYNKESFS
T1 sequence (P13498 2-195 partner limits assumed): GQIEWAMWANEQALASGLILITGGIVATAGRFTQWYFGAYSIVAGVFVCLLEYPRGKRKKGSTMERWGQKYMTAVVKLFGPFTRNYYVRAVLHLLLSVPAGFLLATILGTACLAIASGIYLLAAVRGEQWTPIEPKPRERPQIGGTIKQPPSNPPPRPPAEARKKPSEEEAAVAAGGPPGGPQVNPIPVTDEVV

xanthine oxidase = xanthine oxidase (Homo sapiens, UniProt P47989); test: xanthine oxidase assay, same ROS read-out as NOX assays; format: biochemical
human Nox1 = biological target: T2, human Nox1 (Homo sapiens, UniProt Q9Y5S8); format: biochemical
T2 sequence (Q9Y5S8 1-564): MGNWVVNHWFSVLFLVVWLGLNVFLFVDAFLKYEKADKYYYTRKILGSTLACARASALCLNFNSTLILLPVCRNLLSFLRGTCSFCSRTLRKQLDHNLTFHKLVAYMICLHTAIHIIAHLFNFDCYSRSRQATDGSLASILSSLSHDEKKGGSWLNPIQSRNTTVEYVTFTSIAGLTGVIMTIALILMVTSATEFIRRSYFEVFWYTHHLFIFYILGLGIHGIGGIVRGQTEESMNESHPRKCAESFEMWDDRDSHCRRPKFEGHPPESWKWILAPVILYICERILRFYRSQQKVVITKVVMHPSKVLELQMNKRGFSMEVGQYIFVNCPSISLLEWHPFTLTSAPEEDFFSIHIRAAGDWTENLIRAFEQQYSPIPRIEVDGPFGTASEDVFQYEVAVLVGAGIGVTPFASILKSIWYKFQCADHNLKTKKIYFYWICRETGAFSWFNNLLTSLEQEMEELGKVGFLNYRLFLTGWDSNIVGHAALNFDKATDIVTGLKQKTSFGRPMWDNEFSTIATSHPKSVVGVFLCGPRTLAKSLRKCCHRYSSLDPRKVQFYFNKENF
T2 sequence (P13498 2-195 partner limits assumed): T1 sequence (P13498 2-195 partner limits assumed)

[1] = tested on: NOX2-driven neutrophil oxidative burst; test: neutrophil oxidative burst by flow cytometry in human whole blood; format: cell-based; conditions: up to 100uM
[2] = tested on: CCl4-induced liver fibrosis; test: CCl4 model of liver fibrosis; format: in vivo, mice
[3] = tested on: BDL-induced hepatic fibrosis; test: bile duct ligation; format: in vivo; conditions: WT and SOD1mu mice, 60 mg/kg daily from day 11
activated HSCs = test: gene expression in culture-activated primary HSCs; format: cell-based, mouse; conditions: 20 μM
colI-GFP HSCs = test: collagen promoter-driven GFP expression in HSCs; format: cell-based, mouse; conditions: SOD1mu and WT HSCs, Ang II 10^−6 M, 20 μM, 24 hours
HSCs [4] = test: ROS generation in DCFDA-loaded HSCs; format: cell-based, mouse; conditions: SOD1mu and WT HSCs, Ang II 10^−6 M, 20 μM
Rac1 = Rac1 G-LISA activation assay in HSCs; format: cell-based, mouse; conditions: WT and SOD1mu HSCs, 20 μM, 24 hours
HSCs [5] = test: gene expression in Ang II stimulated HSCs; format: cell-based, mouse; conditions: Ang II 10^−6 M, 20 μM, 24 hours
170 different proteins = test: in vitro off-target pharmacological profile; conditions: tested at 10 μM
[6] = CCl4 treated SOD1mu mice, 60 mg/kg daily
[7] = SOD1mu and WT mice, 60 mg/kg daily

Chain of xanthine oxidase (P47989 whole entry, species assumed): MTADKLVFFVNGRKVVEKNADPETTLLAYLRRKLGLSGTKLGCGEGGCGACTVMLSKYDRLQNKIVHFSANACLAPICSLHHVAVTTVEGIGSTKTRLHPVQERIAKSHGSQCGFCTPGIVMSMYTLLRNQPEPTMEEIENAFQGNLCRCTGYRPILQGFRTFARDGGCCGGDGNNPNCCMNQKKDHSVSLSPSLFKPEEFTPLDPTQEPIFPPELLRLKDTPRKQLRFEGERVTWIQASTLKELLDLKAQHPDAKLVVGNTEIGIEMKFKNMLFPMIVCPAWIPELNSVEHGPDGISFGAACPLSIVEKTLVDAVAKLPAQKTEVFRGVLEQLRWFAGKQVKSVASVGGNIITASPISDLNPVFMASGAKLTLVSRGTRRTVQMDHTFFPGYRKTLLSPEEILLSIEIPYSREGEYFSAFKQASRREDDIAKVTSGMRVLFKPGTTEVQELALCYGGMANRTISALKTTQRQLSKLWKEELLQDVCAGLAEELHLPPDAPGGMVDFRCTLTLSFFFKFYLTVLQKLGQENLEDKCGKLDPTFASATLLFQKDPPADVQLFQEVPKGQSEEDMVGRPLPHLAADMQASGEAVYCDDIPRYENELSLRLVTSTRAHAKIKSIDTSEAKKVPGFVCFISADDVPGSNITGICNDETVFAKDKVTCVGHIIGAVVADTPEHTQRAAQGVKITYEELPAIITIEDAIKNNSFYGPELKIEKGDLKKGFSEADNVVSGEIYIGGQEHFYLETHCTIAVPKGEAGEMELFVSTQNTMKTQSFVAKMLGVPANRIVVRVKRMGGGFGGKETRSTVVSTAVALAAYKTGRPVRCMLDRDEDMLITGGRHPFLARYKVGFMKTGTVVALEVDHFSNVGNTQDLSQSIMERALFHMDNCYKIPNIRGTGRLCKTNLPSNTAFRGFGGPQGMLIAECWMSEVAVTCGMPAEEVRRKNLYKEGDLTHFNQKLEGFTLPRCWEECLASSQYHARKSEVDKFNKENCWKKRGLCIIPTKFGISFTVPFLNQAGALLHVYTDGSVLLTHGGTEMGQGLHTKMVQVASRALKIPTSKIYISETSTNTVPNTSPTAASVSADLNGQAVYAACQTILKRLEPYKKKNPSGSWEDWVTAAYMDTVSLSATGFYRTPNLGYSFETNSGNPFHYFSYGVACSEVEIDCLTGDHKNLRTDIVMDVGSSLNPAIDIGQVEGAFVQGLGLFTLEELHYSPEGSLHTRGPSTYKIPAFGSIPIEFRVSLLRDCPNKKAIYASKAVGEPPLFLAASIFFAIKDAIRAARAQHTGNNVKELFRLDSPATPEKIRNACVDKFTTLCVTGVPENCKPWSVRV

Ki (human Nox4): 0.07 ± 0.01 µM
Ki (xanthine oxidase; read-out: Ki on xanthine oxidase): 0.05 µM
SMILES: c1ccc([I+]c2ccccc2)cc1 [DPI, Diphenyliodonium, reference compound]

SMILES: CN(C)c1cccc(-c2c3c(=O)n(-c4ccccc4Cl)[nH]c3cc(=O)n2C)c1 [GKT137831, 2-(2-chlorophenyl)-4-[3-(dimethylamino)phenyl]-5-methyl-1H-pyrazolo[4,3-c]pyridine-3,6(2H,5H)-dione]
Ki (human Nox1): 0.11 ± 0.03 µM
Ki (xanthine oxidase): > 100 µM
scavenging of superoxide (O2•−) (xanthine oxidase): inability to scavenge superoxide
inhibition of neutrophil oxidative burst [1]: did not significantly inhibit
liver inflammation and injury ([2]; CCl4 treated SOD1mu and WT mice, 60 mg/kg daily): inhibited to similar lower levels
hepatic 4-HNE levels [2, 6]: suppressed
hepatic MDA levels (TBARS) [2, 6]: suppressed
hepatic mRNA expression of TNF-α [2, 6]: suppressed
serum ALT levels [2, 6]: reduced
macrophage infiltration and activation (F4/80, CD68) ([2]; CCl4 treated mice, 60 mg/kg daily): prevented macrophage infiltration and activation
hepatic collagen deposition (Sirius red staining) [2, 7]: reduced
hepatic mRNAs of collagen α1(I), TIMP-1 and TGF-β [2, 7]: reduced the induction of those genes to the same lower levels
CCl4-induced liver fibrosis ([2]; SOD1mu and WT mice, 60 mg/kg intragastric daily, last half of CCl4 treatment): attenuated
hepatic α-SMA expression ([2]; SOD1mu mice, immunohistochemistry and immunoblotting, 60 mg/kg daily): markedly decreased
BDL-induced hepatic fibrosis [3]: decreased
NOX4 and NOX1 mRNA expression (activated HSCs; activated SOD1mu HSCs): suppressed
collagen α1(I) and Acta2 mRNA expression (activated HSCs; activated SOD1mu and WT HSCs): reduced
Ang II induced GFP fluorescence (collagen α1(I) promoter) (colI-GFP HSCs): suppressed
Ang II induced ROS generation (HSCs [4]): suppressed
Rac1 activity after Ang II stimulation (Rac1): no effect
Ang II induced NOX1 and NOX4 mRNA expression (HSCs [5]; SOD1mut and WT HSCs): suppressed
Ang II induced collagen α1(I) and TIMP-1 mRNA expression (HSCs [5]; WT and SOD1mu HSCs): blocked
inhibition of off-target proteins (170 different proteins): did not show any significant inhibition of any tested target protein
